{
  "source": "paper PMC10992699",
  "about": "“Comparative structure activity and target exploration of 1,2-diphenylethynes in Haemonchus contortus and Caenorhabditis elegans” (International Journal for Parasitology: Drugs and Drug …, 2024)",
  "key": {"[1]": {"tested_on": "adult females of Haemonchus contortus", "assay": "Motility of adult female H. contortus in vitro", "format": "cell-based", "settings": "40 μM; 24 h of incubation; normalised to negative control", "method": "Adult H. contortus were collected from the abomasa of sheep infected for 10 weeks, washed extensively with phosphate-buffered saline (PBS, pH 7.4) and subsequently in RPMI 1640 media supplemented with final concentrations of 2 mM L-glutamine, 100 IU/mL of penicillin, 100 μg/mL of streptomycin and 0.25 μg/mL of amphotericin B (Thermo Fisher Scientific, Scoresby, VIC, Australia; this supplemented RPMI was designated RPMI*). Female and male worms were collected and separated immediately prior to compound testing.\nThe activity of UMW-9729 and six derivatives (12, 14, 15, 16, 18 and 25) was assessed on adult female specimens of H. contortus in an established assay ([Taki et al., 2020]). The compound was added in triplicate to the wells of a 24-well plate (cat. no. 3524; Corning, USA) at a concentration of 40 μM in 500 μL of RPMI* (RPMI supplemented with final concentrations of 2 mM L-glutamine, 100 IU/mL of penicillin, 100 μg/mL of streptomycin and 0.25 μg/mL of amphotericin B; Thermo Fisher Scientific, Scoresby, VIC, Australia). Two positive-control compounds, monepantel and moxidectin, and a negative control containing 1 % (v/v) DMSO only, were included in triplicates on the same plate. Three adult females were added to each of the triplicate wells containing either the test compound or the controls and placed in a CO2 incubator (10 % (v/v) CO2, 40 °C, >90 % relative humidity) for 1 day. A video recording (30 s) of each well was taken at 3 h, 6 h, 12 h and 24 h during the total incubation period to assess the reduction in worm motility, which was scored as 3 (“good”), 2 (“low”), 1 (“very low”) or 0 (“no movement”; cf. [Taki et al., 2020]). For each test or control compound, the motility scores for each of the triplicate wells were calculated, normalised with reference to the negative control (100 % motility) and recorded as a percentage."}, "[2]": {"assay": "HepG2 cytotoxicity (CellTiter-Glo)", "format": "cell-based", "settings": "human, HepG2 cells, read-out: half-maximal cytotoxic concentration (CC50)", "method": "The cytotoxicity of UMW-9729 and six key derivatives (12, 14, 15, 16, 18 and 25) on human hepatoma (HepG2) cells was evaluated as described previously ([Gilson et al., 2017]). In short, HepG2 cells were first cultured (in an incubator at 5 % (v/v) CO2, 37 °C, >90 % humidity) in Dulbecco's modified Eagle's medium (DMEM) supplemented with 5 % foetal bovine serum (FBS). Test compounds were serially-diluted (10-points, 2-fold serial dilution, top concentration of 50 μM) in DMEM + 10 % FBS, adjusted to a 0.5 % DMSO concentration and arrayed across a 384-well plate. Bortezomib (10 μM) was used as a positive control; 0.5 % DMSO was used as a negative control. HepG2 cells (1 × 10^3 cells per 50 μL of DMEM + 10 % FBS) were then seeded into wells of the assay plate; plates were the incubated (5 % (v/v) CO2, 37 °C, >90 % humidity) for 48 h. Cell proliferation was subsequently determined using CellTiter-Glo (Promega) and normalised using the negative-controls to calculate as a percentage. All compounds were tested in duplicate. The half-maximal cytotoxic (CC50) values were calculated by the Dotmatics (v.5.3) and Spotfire (v.7.11.1) software using a nonlinear regression four-parameter fit analysis."}, "[3]": {"tested_on": "human hepatoma (HepG2) cells", "assay": "HepG2 mitotoxicity (galactose medium, crystal violet staining)", "format": "cell-based", "settings": "48 h", "method": "The mitotoxicity of UMW-9729 and six key derivatives (12, 14, 15, 16, 18 and 25) on human hepatoma (HepG2) cells was evaluated as described previously using an established protocol ([Swiss and Will, 2011]; [Kamalian et al., 2015]; [Śliwka et al., 2016]). Test compounds were serially-diluted (7-points, 2-fold serial dilution, 50 μM top concentration) in DMEM (Thermo Fisher Scientific, USA) with GlutaMax™ supplemented with 25 mM D-galactose, 10 % heat-inactivated FBS, 100 IU/mL of penicillin, 100 μg/mL of streptomycin and 0.25 μg/mL of amphotericin B (denoted DMEM*). Monepantel and moxidectin (prepared in the same manner as the test compounds) were included as reference compounds. M-666 ([…]; [Le et al., 2018]) was used as a positive control; 0.25 % DMSO was used as a negative control. HepG2 cells were seeded into wells of a 96-well plate in 80 μL of DMEM* (at 1 × 10^5 cells per well) and allowed to adhere for 16 h (5 % (v/v) CO2, 37 °C, >90% humidity)prior to incubation with individual compounds, at a final volume of 100 μL. […] Following 48 h of incubation with compounds, cell viability was determined by crystal violet staining ([Śliwka et al., 2016]). The absorbance (595 nm) of treated cells was normalised using the negative-controls to calculate the cell viability. […]"}, "B0361.6": {"target": "T1, B0361.6 (Caenorhabditis elegans, UniProt Q10950)", "T1 construct": "from tissue; host or cells: whole-worm lysate of C. elegans N2 (young adults / L4s)", "T1 sequence (Q10950 whole entry)": "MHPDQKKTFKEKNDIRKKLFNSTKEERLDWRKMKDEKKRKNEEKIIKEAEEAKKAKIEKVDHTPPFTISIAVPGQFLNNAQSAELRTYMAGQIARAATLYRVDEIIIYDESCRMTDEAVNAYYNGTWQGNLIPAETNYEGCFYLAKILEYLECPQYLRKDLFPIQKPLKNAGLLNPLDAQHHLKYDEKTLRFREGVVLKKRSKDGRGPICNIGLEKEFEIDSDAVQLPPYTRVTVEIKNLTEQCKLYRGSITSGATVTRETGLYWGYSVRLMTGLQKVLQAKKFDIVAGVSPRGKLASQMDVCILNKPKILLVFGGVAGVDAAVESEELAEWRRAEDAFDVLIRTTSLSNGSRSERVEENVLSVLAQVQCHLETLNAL", "assay": "Thermal proteome profiling (TPP)", "format": "binding", "settings": "compound 50 μM, C. elegans lysate, 37-67 °C"}, "TRXR-1": {"target": "T2, TRXR-1 (Caenorhabditis elegans, UniProt Q17745)", "T2 construct": "from tissue; host or cells: whole-worm lysate of C. elegans N2 (young adults / L4s)", "T2 sequence (Q17745 whole entry)": "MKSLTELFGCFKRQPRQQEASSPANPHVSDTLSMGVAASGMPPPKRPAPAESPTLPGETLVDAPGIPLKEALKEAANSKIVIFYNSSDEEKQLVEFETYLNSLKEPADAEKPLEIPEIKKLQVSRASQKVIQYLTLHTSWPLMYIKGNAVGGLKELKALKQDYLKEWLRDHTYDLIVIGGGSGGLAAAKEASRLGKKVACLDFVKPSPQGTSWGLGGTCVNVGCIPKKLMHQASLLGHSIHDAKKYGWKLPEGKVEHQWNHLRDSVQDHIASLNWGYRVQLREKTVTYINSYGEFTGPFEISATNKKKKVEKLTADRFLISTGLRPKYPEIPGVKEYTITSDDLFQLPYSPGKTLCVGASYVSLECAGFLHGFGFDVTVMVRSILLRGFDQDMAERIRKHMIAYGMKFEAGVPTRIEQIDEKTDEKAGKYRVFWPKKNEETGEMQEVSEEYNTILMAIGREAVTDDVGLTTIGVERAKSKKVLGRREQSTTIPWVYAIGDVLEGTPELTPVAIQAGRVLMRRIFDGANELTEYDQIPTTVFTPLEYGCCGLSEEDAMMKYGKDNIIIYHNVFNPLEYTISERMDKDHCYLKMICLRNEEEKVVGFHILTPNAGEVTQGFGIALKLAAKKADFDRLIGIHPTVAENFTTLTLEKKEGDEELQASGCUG", "assay": "Thermal proteome profiling (TPP)", "format": "binding", "settings": "compound 50 μM, C. elegans lysate, 37-67 °C"}, "C. elegans young adults": {"tested_on": "C. elegans young adults", "parameters": "method as in Taki et al., 2021a", "settings": "previous HitFinder library screen, ref Taki et al., 2021a, cited from earlier work"}},
  "data": [
    {"smiles": "C(#Cc1ccc(-c2ccn[nH]2)cc1)c1ccccc1", "note": "[UMW-9729]", "values": [
      {"measurement": "reduction of worm motility, adult females of H. contortus", "setting": "[1]", "result": "did not"},
      {"measurement": "CC50 at 48 h", "setting": "[2]", "result": "> 40", "unit": "µM"},
      {"measurement": "half-maximal mitotoxic concentration (MC50)", "setting": "[3]", "result": "> 40", "unit": "µM"},
      {"measurement": "F-statistic", "setting": "B0361.6; NPARC", "result": 24.2},
      {"measurement": "thermal stability of protein in the presence of compound", "setting": "B0361.6", "result": "stabilised"},
      {"measurement": "F-statistic", "setting": "TRXR-1; NPARC", "result": 20.2},
      {"measurement": "thermal stability of protein in the presence of compound", "setting": "TRXR-1", "result": "stabilised"},
      {"measurement": "maximum motility inhibition, young adults of C. elegans", "setting": "C. elegans young adults", "result": 88.9, "unit": "%"},
      {"measurement": "IC50", "setting": "C. elegans young adults; read-out: half-maximal inhibitory concentration (IC50), motility of young adults of C. elegans", "result": 5.6, "unit": "µM"}
    ]}
  ]
}
